Measured values reported in the NIST ThermoML archive (doi:10.1016/j.jct.2017.08.035).

Assay: wn = mass fraction of the nth substance listed
Details: for surface tension liquid-gas: Maximal bubble pressure; for mass density: 100 kPa, Liquid, Vibrating tube method

CCn1cc[n+](CCOC)c1.O=S(=O)([O-])C(F)(F)F + O
Details	mass density, w2 = 0.00185 [kg/m3]	mass density, w2 = 0.0038 [kg/m3]	mass density, w2 = 0.00537 [kg/m3]	mass density, w2 = 0.00665 [kg/m3]	mass density, w2 = 0.00891 [kg/m3]	surface tension liquid-gas, w2 = 0.0016 [mN/m]	surface tension liquid-gas, w2 = 0.00284 [mN/m]	surface tension liquid-gas, w2 = 0.00419 [mN/m]	surface tension liquid-gas, w2 = 0.0056 [mN/m]	surface tension liquid-gas, w2 = 0.007 [mN/m]
298.15 K	1355.32	1354.72	1354.29	1353.79	1353.19	38.2	38.4	38.6	38.8	39
303.15 K	1351.04	1350.44	1350	1349.52	1348.89	37.9	38.1	38.3	38.4	38.6
308.15 K	1346.78	1346.18	1345.72	1345.26	1344.62	37.6	37.8	37.9	38.1	38.3
313.15 K	1342.54	1341.93	1341.46	1341.03	1340.36	37.3	37.5	37.7	37.9	38.1
318.15 K	1338.31	1337.7	1337.22	1336.82	1336.12	37.1	37.3	37.5	37.7	37.9
323.15 K	1334.1	1333.49	1333	1332.62	1331.9	36.8	37	37.2	37.5	37.7
328.15 K	1329.9	1329.3	1328.79	1328.44	1327.7	36.5	36.7	36.9	37.1	37.3
333.15 K	1325.72	1325.11	1324.6	1324.26	1323.51	36.3	36.5	36.7	36.9	37.1
338.15 K	1321.54	1320.94	1320.43	1320.1	1319.34	36	36.2	36.3	36.5	36.7
